Test results reported in patent US7462615B2, “Inhibitors of cysteine proteases, the pharmaceutical compositions thereof and their therapeutic applications” (Hybrigenics SA, priority 2005, dated 2008).

Columns and labels:
USP7 = target: T1, USP7 (Homo sapiens, UniProt Q93009); assay: USP7 Activity Assay; assay type: biochemical; settings: 400 nM Ub-AMC; 152 pM enzyme; pre-incubated 30 minutes at 25° C., 60 minutes at 37° C.; sigmoidal fit; read-out: USP 7 (Inhibition of cysteine protease activities)
T1 construct: His tag (from vector pFastBac-HT) (N); made in house; host or cells: Sf9 or High Five insect cells (baculovirus)
From the text: The cDNA encoding USP7 was obtained by PCR amplification from placenta mRNA. USP7 cDNA was subcloned by PCR into a baculovirus expression vector (pFastBac-HT; Invitrogen). A cDNA encoding a mutated USP7 was generated by mutagenic PCR. The corresponding protein encodes a cysteine to alanine substitution at residue 223. The sequences were ascertained by sequencing of the entire open reading frame. Bacmids encoding USP7 were generated following DH10bac transposition. The corresponding bacmids were transfected into insect cells (Sf9). Viruses were recovered from culture supernatant and amplified twice. Insect cells (Sf9 or High Five; Invitrogen) were infected for 72 hours. Total cell lysates were harvested and lyzed in lysis buffer (Tris HCl 50 mM pH7.6; 0.75% NP40; 500 mM NaCl; 10% glycerol; 1 mM DTT; 10 mM imidazole; Protease Inhibitor. Cocktail; AEBSF
20 μg.ml^−1; Aprotinin 10 μg.ml^−1). Proteins were affinity purified on metal affinity resins (Talon Metal affinity resin; BD Biosciences). Bound materials were extensively washed in wash buffer (50 mM Sodium Phosphate pH7.0; 300 mM NaCl; 10 mM imidazole; 0.5% Triton X-100; 10% glycerol) and eluted from the resin in 250 mM imidazole-containing wash buffer. Proteins were dialyzed in dialysis buffer (Tris HCl pH 7.6 20 mM; NaCl 200 mM; DTT 1 mM; EDTA 1 mM; 10% Glycerol). Proteins purifications were analyzed on 4-12% NuPAGE (Invitrogen).
(§1) USP7 was diluted in USP buffer (50 mM Tris HCl; 0.5 mM EDTA; 5 mM DTT; 0.01% Triton X-100; Bovine Serum Albumin 0.05 mg.ml^−1 pH7.6). Compounds stocks (100 mM) were stored at −20° C. in DMSO. Compounds were tested at the following final concentrations: 100 μM; 33.3 μM; 11.1 μM; 3.7 μM; 1.23 μM; 412 nM; 137 nM; 45.7 nM; 15.2 nM; 5 nM.
Reactions were performed as duplicates in Black LJL 96 well plates (HE microplates; Molecular Devices; 20 μl final reaction volume). The substrate concentration for USP7 was 400 nM Ub-AMC (Chem. Biol., 2003, 10, p. 837-846) (Boston Biochem). The concentrations of the enzyme (USP7) in specificity assays was 152 pM. The concentrations were determined in order to perform specificity assays under initial velocities at fixed substrate concentration. Compounds were pre-incubated with enzymes for 30 minutes at 25° C. Reactions were initiated by addition of substrate to the plates containing the enzymes (+/−compounds) diluted in assay buffer. Reactions were incubated for 60 minutes at 37° C. Reactions were stopped by adding acetic acid (100 mM final). Readings were performed on a Pherastar Fluorescent Reader (BMG). λ Emission 380 nm; λ Excitation=460 nm. Data (mean values +/−standard deviation) were analyzed as % of control (no compound) and plotted as percentage versus the Log of the compound concentration using GraphPad (Prism). Data were fitted to a sigmoidal model (variable slope).

Uch-L3 = target: T2, Uch-L3 (Homo sapiens, UniProt P15374); assay: UCH-L3 Activity Assay; assay type: biochemical; settings: 400 nM Ub-AMC; 13 pM enzyme; pre-incubated 30 minutes at 25° C., 60 minutes at 37° C.; sigmoidal fit; read-out: Uch-L3 (Inhibition of cysteine protease activities)
T2 sequence (P15374 1-230): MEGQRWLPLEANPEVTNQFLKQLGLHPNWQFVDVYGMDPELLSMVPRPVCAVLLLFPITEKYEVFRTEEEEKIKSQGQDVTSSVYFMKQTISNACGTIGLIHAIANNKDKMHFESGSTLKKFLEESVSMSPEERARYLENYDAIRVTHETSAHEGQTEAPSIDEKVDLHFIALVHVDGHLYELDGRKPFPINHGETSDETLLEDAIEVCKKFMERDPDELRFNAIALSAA
Experimental: as §1, with “Uch-L3 was” for “USP7 was”, “11.1 μM:” for “11.1 μM;”
Reactions were performed as duplicates in Black LJL 96 well plates (HE microplates; Molecular Devices; 20 μl final reaction volume). The substrate concentration for Uch-L3 was 400 nM Ub-AMC (Boston Biochem). The concentration of the enzyme (Uch-L3) in specificity assays was 13 pM. The concentrations were determined in order to perform specificity assays under initial velocities at fixed substrate concentration. Compounds were pre-incubated with enzymes for 30 minutes at 25° C. Reactions were initiated by addition of substrate to the plates containing the enzymes (+/−compounds) diluted in assay buffer. Reactions were incubated for 60 minutes at 37° C. Reactions were stopped by adding acetic acid (100 mM final). Readings were performed on a Pherastar Fluorescent Reader (BMG). δ Emission 380 nm; δ Excitation=460 nm. Data (mean values +/− standard deviation) were analyzed as % of control (no compound) and plotted as percentage versus the Log of the compound concentration using GraphPad (Prism). Data were fitted to a sigmoidal model (variable slope).

T1 sequence (Q93009 whole entry): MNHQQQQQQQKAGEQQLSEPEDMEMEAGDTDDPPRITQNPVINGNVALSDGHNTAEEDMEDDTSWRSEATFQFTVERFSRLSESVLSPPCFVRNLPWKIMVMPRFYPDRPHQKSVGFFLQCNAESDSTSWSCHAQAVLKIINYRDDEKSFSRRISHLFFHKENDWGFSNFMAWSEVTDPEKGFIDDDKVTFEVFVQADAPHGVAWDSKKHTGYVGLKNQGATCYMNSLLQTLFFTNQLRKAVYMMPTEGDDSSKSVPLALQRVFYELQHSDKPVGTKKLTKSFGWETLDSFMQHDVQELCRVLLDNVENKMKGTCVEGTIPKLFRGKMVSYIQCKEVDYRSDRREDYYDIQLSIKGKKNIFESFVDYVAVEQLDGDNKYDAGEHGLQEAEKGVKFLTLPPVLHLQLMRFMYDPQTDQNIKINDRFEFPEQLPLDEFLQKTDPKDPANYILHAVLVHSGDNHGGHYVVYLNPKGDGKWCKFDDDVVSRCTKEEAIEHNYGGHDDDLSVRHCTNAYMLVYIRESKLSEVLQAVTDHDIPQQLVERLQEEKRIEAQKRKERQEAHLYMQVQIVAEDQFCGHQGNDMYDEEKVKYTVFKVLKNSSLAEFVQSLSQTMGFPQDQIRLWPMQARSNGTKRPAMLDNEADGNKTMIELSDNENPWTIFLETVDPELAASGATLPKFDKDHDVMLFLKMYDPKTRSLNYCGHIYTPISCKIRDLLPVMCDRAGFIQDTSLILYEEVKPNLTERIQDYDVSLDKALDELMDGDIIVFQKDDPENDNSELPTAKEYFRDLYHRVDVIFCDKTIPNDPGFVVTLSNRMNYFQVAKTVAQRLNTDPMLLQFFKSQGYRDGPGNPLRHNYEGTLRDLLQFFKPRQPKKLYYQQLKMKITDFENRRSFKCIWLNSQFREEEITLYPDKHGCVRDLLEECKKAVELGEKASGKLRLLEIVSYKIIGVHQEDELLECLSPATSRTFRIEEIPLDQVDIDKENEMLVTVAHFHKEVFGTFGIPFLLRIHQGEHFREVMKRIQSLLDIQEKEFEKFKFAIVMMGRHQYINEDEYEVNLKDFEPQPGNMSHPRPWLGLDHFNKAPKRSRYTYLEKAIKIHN

| IC50 (USP7) | IC50 (Uch-L3) | Compound |
| --- | --- | --- |
| 1610 nM | 158 nM | O=C1c2ccccc2-c2nn3c(CO)nnc3nc21 [Example 1h/B] |
| 16700 nM | 516 nM | Cc1nnc2nc3c(nn12)C(=O)c1ccccc1-3 [Example 1b/A, 1-Methyl-2,3,4,10,10a-pentaaza-cyclopenta[b]fluoren-9-one] |
| – | 1900 nM | O=C1c2ccccc2-c2nc3nnc(C4CC4)n3nc21 [Example 1j/A, 1-Cyclopropyl-2,3,4,10,10a-pentaaza-cyclopenta[b]fluoren-9-one] |
| 51000 nM | 3400 nM | Cn1nc2nc3c(nc2n1)-c1ccccc1C3=O [Example 4a, 2-Methyl-2H-1,2,3,4,10-pentaaza-cyclopenta[b]fluoren-9-one] |
| – | 1270 nM | CCCc1nnc2nc3c(nn12)C(=O)c1ccccc1-3 [Example 1e/A, 1-Propyl-2,3,4,10,10a-pentaaza-cyclopenta[b]fluoren-9-one] |
| 16500 nM | 430 nM | CCc1nnc2nc3c(nn12)C(=O)c1ccccc1-3 [Example 1d/A, 1-Ethyl-2,3,4,10,10a-pentaaza-cyclopenta[b]fluoren-9-one] |
| 9700 nM | 390 nM | O=C1c2ccccc2-c2nc3nnc(CO)n3nc21 [Example 1h/A, 1-Hydroxymethyl-2,3,4,10,10a-pentaaza-cyclopenta[b]fluoren-9-one] |
| 2800 nM | 323 nM | 6-(7)-Chloro-1-methyl-2,3,4,10,10a-pentaaza-cyclopenta[b]fluoren-9-one [Example 3/A] |
| 662 nM | 168 nM | CCCc1nnc2nc3c(nn12)-c1ccccc1C3=O [Example 1e/B, 3-Propyl-1,2,3a, 4,10-pentaaza-cyclopenta[b]fluoren-9-one] |
| 461 nM | 202 nM | COCc1nnc2nc3c(nn12)-c1ccccc1C3=O [Example 1i/B, 3-Methoxymethyl-1,2,3a, 4,10-pentaaza-cyclopenta[b]fluoren-9-one] |
| 789 nM | 183 nM | CC(C)Cc1nnc2nc3c(nn12)-c1ccccc1C3=O [Example 1g/B, 3-Isobutyl-1,2,3a,4,10-pentaaza-cyclopenta[b]fluoren-9-one] |
| 700 nM | 133 nM | Nc1nnc2nc3c(nn12)-c1ccccc1C3=O [Example 1c/B, 3-Amino-1,2,3a,4,10-pentaaza-cyclopenta[b]fluoren-9-one] |
| 225 nM | 95 nM | CCc1nnc2nc3c(nn12)-c1ccccc1C3=O [Example 1d/B, 3-Ethyl-1,2,3a, 4,10-pentaaza-cyclopenta[b]fluoran-9-one] |
| – | 7800 nM | O=C1c2ccccc2-c2nc3nn(Cc4ccccc4)nc3nc21 [Example 4b, 2-Benzyl-2H-1,2,3,4,10-pentaaza-cyclopenta[b]fluoren-9-one] |
| 604 nM | 91 nM | CCCCc1nnc2nc3c(nn12)-c1ccccc1C3=O [Example 1f/B, 3-Butyl-1,2,3a,4,10-pentaaza-cyclopenta[b]fluoren-9-one] |
| 3300 nM | 598 nM | O=C1c2ccccc2-c2nc3nnc(Cc4ccccc4)n3nc21 [Example 1k/A, 1-Benzyl-2,3,4,10,10a-pentaaza-cyclopenta[b]fluoren-9-one] |
| 425 nM | 164 nM | O=C1c2ccccc2-c2nn3c(Cc4ccccc4)nnc3nc21 [Example 1k/B, 3-Benzyl-1,2,3a,4,10-pentaaza-cyclopenta[b]fluoren-9-one] |
| 550 nM | 143 nM | Cc1nnc2nc3c(nn12)-c1ccccc1C3=O [Example 1b/B, 3-Methyl-1,2,3a,4,10-pentaaza-cyclopenta[b]fluoren-9-one] |
| 522 nM | 71 nM | Cc1nnc2nc3c(nn12)-c1ccc(Cl)cc1C3=O [Example 3/B, 7-Chloro-3-methyl-1,2,3a, 4,10-pentaaza-cyclopenta[b]fluoren-9-one] |
| – | 636 nM | CC(C)Cc1nnc2nc3c(nn12)C(=O)c1ccccc1-3 [Example 1g/A, 1-Isobutyl-2,3,4,10,10a-pentaaza-cyclopenta[b]fluoren-9-one] |
| – | 261 nM | COCc1nnc2nc3c(nn12)C(=O)c1ccccc1-3 [Example 1i/A, 1-Methoxymethyl-2,3,4,10,10a-pentaaza-cyclopenta[b]fluoren-9-one] |
| 207 nM | 55 nM | O=C1c2ccccc2-c2nn3c(C4CC4)nnc3nc21 [Example 1j/B, 3-Cyclopropyl-1,2,3a,4,10-pentaaza-cyclopenta[b]fluoren-9-one] |
| 23000 nM | 364 nM | CCCCc1nnc2nc3c(nn12)C(=O)c1ccccc1-3 [Example 1f/A, 1-Butyl-2,3,4,10,10a-pentaaza-cyclopenta[b]fluoren-9-one] |
| 15300 nM | 860 nM | Nc1nnc2nc3c(nn12)C(=O)c1ccccc1-3 [Example 1c/A, 1-Amino-2,3,4,10,10a-pentaaza-cyclopenta[b]fluoren-9-one] |
